Data on one molecule can be found in ChEMBL document CHEMBL4321794, “Discovery and Optimization of 2-Arylquinazolin-4-ones into a Potent and Selective Tankyrase Inhibitor Modulating Wnt Pathway Activity” (J Med Chem, 2019).

Series [1] concerns the target T1, Protein mono-ADP-ribosyltransferase TIPARP (Homo sapiens, UniProt Q7Z3E1).
T1 sequence (Q7Z3E1 whole entry): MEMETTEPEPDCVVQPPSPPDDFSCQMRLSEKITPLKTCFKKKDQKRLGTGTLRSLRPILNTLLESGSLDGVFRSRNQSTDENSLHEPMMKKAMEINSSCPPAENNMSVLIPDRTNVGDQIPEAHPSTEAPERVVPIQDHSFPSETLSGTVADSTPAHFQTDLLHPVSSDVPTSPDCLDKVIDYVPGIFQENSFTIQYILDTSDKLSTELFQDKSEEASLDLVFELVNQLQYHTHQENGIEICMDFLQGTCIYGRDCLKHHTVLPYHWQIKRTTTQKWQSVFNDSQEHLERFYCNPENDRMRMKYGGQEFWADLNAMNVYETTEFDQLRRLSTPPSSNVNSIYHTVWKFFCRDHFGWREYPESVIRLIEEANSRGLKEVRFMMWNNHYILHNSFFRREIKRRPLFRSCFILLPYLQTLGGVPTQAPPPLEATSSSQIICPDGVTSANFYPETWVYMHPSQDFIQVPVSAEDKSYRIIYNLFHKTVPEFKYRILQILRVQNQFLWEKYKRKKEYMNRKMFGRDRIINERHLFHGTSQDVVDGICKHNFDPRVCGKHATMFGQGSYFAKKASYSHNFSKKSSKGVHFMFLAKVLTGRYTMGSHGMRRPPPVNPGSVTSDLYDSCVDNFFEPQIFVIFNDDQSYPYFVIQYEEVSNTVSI
Nature of the series: Inhibition of N-terminal FLAG-tagged recombinant human PARP7 (400 to 657 residues) expressed in Baculovirus infected Sf9 cells using biotinylated substrate after 1 hr by chemiluminescence method.

A short description of series [2]: Time at which free-drug concentration exceeds in vitro cellular EC50 for inhibition of tankyrase 1/2 in human DLD1 cells assessed as increase in axin2 accumulation in mouse xenografted with human DLD1 at 10 mg/kg, po administered via gavage. Conditions: in vivo. It is filed as organism-based. (In general: A xenograft is tissue or cells of one species grown in another, often human tumour cells in immunodeficient mice.)

Series [3] in a line: Time at which free-drug concentration exceeds in vitro cellular EC50 for inhibition of tankyrase 1/2 in human DLD1 cells assessed as increase in axin2 accumulation in mouse xenografted with human DLD1 at 90 mg/kg, po administered via gavage. It is filed as organism-based. The settings on record: in vivo.

In general, IC50 refers to the concentration at which inhibition is half-maximal. Consider `CC(C)(O)c1ccc(-c2nc3c(F)cc(F)cc3c(=O)[nH]2)cc1`, for which the IC50 in series [1] is greater than 10 µM. The “T>fEC50” value in series [2] and in series [3] was “>= 12 hr” each time.
